Data set [1] concerns apoE knockout mice (apoE-KO mice). Put plainly: Serum items, organ weights and fat accumulated in the liver 12 weeks after hydrogen gas inhalation. Type of data set: in vivo, mouse. The conditions noted are these: 12 weeks hydrogen gas inhalation, vs control group. As to the method: The amounts of the following items in serum were measured: total cholesterol, LDL cholesterol, HDL cholesterol, neutral fat, AST, ALT, creatinine kinase, total protein, lactate dehydrogenase, urea nitrogen, total bilirubin, creatinine, alkaline phosphatase, choline esterase, and albumine. […] Each liver was fixed with 4% paraformaldehyde overnight, followed by dehydration with sucrose. Thereafter, frozen sections were prepared and stained with Oil-Red O. Then, the amount of lipids accumulated in the liver was calculated (FIG. 13A, images). The stained portions indicate fat accumulation.

For data set [2] the following is noted: hydrogen pressure of 1 atmosphere, room temperature; cited from earlier work.
Data set [3] concerns apoE knockout mice (apoE-KO mice). The conditions noted are these: approximately 2% hydrogen gas inhalation, vs control group. The protocol:
(§1) The size of this container was as follows: W: 550 mm; L: 400 mm; and H: 300 mm.
(§2) Then, effects on body fat and the liver were examined. 9-week-old male apoE-KO mice were placed in cages (4 mice each). One group was designated as a control group and normal air was supplied thereto.
Next, each mouse was analyzed with an X-ray CT for laboratory animals (LaTheta LCT-100A, Aloka Co., Ltd.). General anesthesia induction was carried out by supplying an anesthetic gas mixture (oxygen: 0.3 L/min; nitrous-oxide gas: 0.7 L/min; Sevofrane: 3% (Maruishi Pharmaceutical Co., Ltd.)) to each mouse with the use of a general anesthesia apparatus for small animals (Soft Lander, NeuroScience, Inc). CT scanning was carried out under anesthesia so as to obtain whole-body images (FIG. 9, upper images). Then, fat regions were determined based on CT values so as to specify subcutaneous fat and visceral fat (FIG. 9, lower images). Each cross-sectional area was multiplied by the thickness so as to obtain the volume, followed by estimation of the fat and muscle weights. […] In addition, fat percentages were obtained by the following equation.
Fat percentage (%)=fat [visceral fat+subcutaneous fat]/(fat [visceral fat+subcutaneous fat]+muscle)×100

Data set [4] shares this test system. The conditions noted are these: 11 weeks after hydrogen administration, approximately 2% hydrogen gas inhalation.
Excerpt: as §1, §2
11 weeks after hydrogen administration, the mice were subjected to measurement of muscle force. Upon measurement, each mouse was allowed to hold a mesh wire of the ceiling and the time period until it fell from the ceiling was determined.

For data set [5] the test system is unchanged. The conditions noted are these: inhalation of gas mixture with approximately 2% hydrogen gas.
Excerpt: as §1, §2

In the case of `[HH]` [hydrogen gas], in data set [1], the kidney weight entry was “significantly decreased”, the liver weight entry was “significantly decreased”, the “serum ALT” value is recorded as “no difference was observed” and the “serum AST” value is “no difference was observed”. Moreover, in data set [1], the “serum HDL cholesterol” value is given as “no difference was observed”, the “serum LDL cholesterol” value is reported as “no difference was observed”, the serum albumine entry is “no difference was observed” and the serum alkaline phosphatase result was “no difference was observed”. For the same molecule, in data set [1], the serum choline esterase result is given as “no difference was observed”, the serum creatinine result was “no difference was observed”, the serum creatinine kinase result is given as “no difference was observed” and the serum lactate dehydrogenase result is on record as “no difference was observed”. In data set [1], the serum neutral fat result is given as “no difference was observed”, the serum total bilirubin result is recorded as “no difference was observed”, the serum total cholesterol result is listed as “no difference was observed” and the serum total protein result was “no difference was observed”. The serum urea nitrogen result in data set [1] is “no difference was observed”. Further, the “hydrogen dissolved in 1 L of water” value in data set [2] is “approximately 17.5 mL”. In data set [3], the “amount of subcutaneous fat (CT)” value is reported as “significantly decreased”; the “amount of total fat (CT)” value is listed as “significantly decreased”; the “amount of visceral fat (CT)” value was “significantly decreased”; the “fat percentage (fat/(fat+muscle) x100, CT)” value was “more significantly decreased”. For the same molecule, the “muscle force: time period until mouse fell from mesh wire of the ceiling” value in data set [4] was “significantly long time”. The “weight increases vs control group” value in data set [5] is given as “significantly suppressed”.
